Test results as given in patent US12172966B1, “2-(1H-imidazole-1-carbonyl)benzoic acid as an anticancer compound” (KING FAISAL UNIVERSITY, priority 2023, dated 2024).

What was measured:
[1] = tested on: human osteosarcoma cells (MG-63); assay: Assessment of cytotoxicity by SRB assay, osteosarcoma cells; format: cell-based; conditions: for IC50: mean±SD
Text: (§1) The anticancer activity of the described synthesized compounds against highly aggressive androgen-independent metastatic human prostate cancer cells (PC3) and osteosarcoma (MG-63) cells. The human prostate cancer cells (PC3) and human osteosarcoma cells (MG-63) were obtained from Nawah Scientific Inc. (Mokatam, Cairo, Egypt) and cultured in DMEM (Dulbecco's modified eagle's medium), Gibco, USA, supplemented with fetal bovine serum (FBS) at a concentration of 10% and 100 U/mL of penicillin and streptomycin (PS). The Cells were incubated at 37° C. in a humidified environment that contained 5% CO2.
(§2) Cells were seeded in 96-well plates as aliquots of 100 μL cell suspension and incubated in a complete media for 24 h. afterward, cells were treated with 2-(1H-imidazole-1-carbonyl)benzoic acid at diverse concentrations ranging from 0.01 μM to 100 μM for 72 h. Then, cells were fixed at 4° C. for one hour with 150 μL of 10% trichloroacetic acid (TCA). After washing the cells five times with distilled water, […] of sulforhodamine (SRB) solution (0.4% w/v) was added and incubated for 10 min at room temperature in a dark place. Cells were washed with 1% acetic acid three times and allowed to air-dry. Then, 150 μL of Tris pH 10.5 (10 mM) was added, and the absorbance was measured at 540 nm using a BMG LABTECH®—FLUOstar Omega microplate reader (Ortenberg, Germany). Half maximal inhibitory concentrations (IC50) values were calculated for each experiment using GraphPad Prism 6 software. IC50 values were reported as mean±SD.
(§3) The inhibition was calculated using the following equation: Inhibition %=100−Average Viability

[2] = tested on: human prostate cancer cells (PC3); assay: Assessment of cytotoxicity by SRB assay, prostate cancer cells; format: cell-based; conditions: for IC50: mean±SD
Text: as §1, §2, §3

[3] = Homo sapiens, MG-63 cells, 72 h

Row | SMILES | inhibition at 10 µg/mL ([1]; Homo sapiens, MG-63 cells, 10 μg/ml, 72 h) [%] | inhibition at 100 µg/mL ([1]; Homo sapiens, MG-63 cells, 100 μg/ml, 72 h) [%] | IC50 [1, 3] [µM] | IC50 values, osteosarcoma cell line ([1]; MG-63 cells, bound stated in text for both cell lines) [µM] | antiproliferative activities against osteosarcoma (MG-63) cells ([1]; result in words) | inhibition at 10 µg/mL ([2]; Homo sapiens, PC-3, 72 h, PC-3 cells, 10 μg/ml, 72 h) [%] | IC50 ([2]; Homo sapiens, PC-3 cells, 72 h) [µM] | Prostate cancer (PC-3) Inhibition % ([2]; PC-3 cells, 10 μg/ml, 72 h) [%] | IC50 values, prostate cancer cell line ([2]; PC-3 cells, bound stated in text for both cell lines) [µM] | antiproliferative activities against cancer cells (PC3) ([2]; result in words)
1 | O=C(O)c1ccccc1C(=O)n1ccnc1 [2-(1H-imidazole-1-carbonyl)benzoic acid] | 88.9 | 90.9 | 3.55 ± 0.2 | < 4 | excellent antiproliferative activities | 93 | 2.67 ± 0.03 | 93.44 | < 4 | excellent antiproliferative activities
2 | COc1cccc2c1C(=O)c1c(O)c3c(c(O)c1C2=O)C[C@@](O)(C(=O)CO)C[C@@H]3O[C@H]1C[C@H](N)[C@H](O)[C@H](C)O1 [DOX, Doxorubicin, reference compound] |  |  | 9.3 ± 1.1 |  |  |  | 7.5 ± 0.45 |  |  | 
